Patent US12180207B2 (ARRAY BIOPHARMA INC., priority 2018, dated 2024)

What was measured:
[1] = target: recombinant human FGFR1 catalytic domain (amino acids 308-731) (Homo sapiens (Human), UniProt P11362); assay: FGFR1 enzyme activity assay (LanthaScreen TR-FRET); assay type: biochemical; conditions: 20 min incubation at 22° C., average of multiple determinations if made, read-out: FGFR1 Enz FRET IC50
Procedure, shortened: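 His-tagged FGFR1 kinase domain with 100 nM Alexa Fluor 647-poly-GT peptide and ATP in pH 7.5 HEPES/MgCl2 buffer with 2% DMSO, 20 min at 22 °C. Quenched with EDTA plus 2 nM Eu-PY20 antibody and read after 60 min. IC50 comes from a 4-parameter fit of percent of control.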

[2] = target: recombinant human FGFR3 (amino acids R397-T806) (Homo sapiens (Human), UniProt P22607); assay: FGFR3 enzyme activity assay (LanthaScreen TR-FRET); assay type: biochemical; conditions: 25 μM ATP, 10 min incubation at 22° C., average of multiple determinations if made, read-out: FGFR3 Enz FRET IC50
Procedure, shortened: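 GST-HIS6-tagged human FGFR3 (R397-T806) was reacted with 100 nM Alexa Fluor 647-Poly-GT substrate and 25 μM ATP plus compound in HEPES/MgCl2/Triton buffer, pH 7.5, 2% DMSO, for 10 min at 22 °C.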

[3] = target: FGFR3 (SEQ ID NO: 5, amino acids 449-759) (Homo sapiens (Human), UniProt P22607); assay: LC/MS FGFR3 kobs assay (covalent protein modification); assay type: binding; conditions: 500 nM FGFR3, 3 μM compound
Procedure, shortened: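 Intact-mass LC/MS tracks covalent labeling of the kinase domain over time after acid quench (0.4% formic acid). Unmodified fraction, scaled to DMSO controls, is fitted as exponential decay; kobs is reported, averaged when measured more than once.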

[4] = target: phosphorylated FGFR3 (SEQ ID NO: 5, amino acids 449 to 759) (Homo sapiens (Human), UniProt P22607); assay: FGFR enzyme binding assay (HTRF tracer displacement), FGFR3; conditions: 5 nM phosphorylated FGFR3, average of multiple determinations if made
Procedure, shortened: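 Compounds were tested for displacement of a tracer from human FGFR kinase in a time-resolved FRET binding format. After 60 minutes at 22° C, signal was read at two wavelengths and converted to percent of control, normalised between untreated wells and 1 μM reference inhibitor.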

[5] = target: recombinant human FGFR2 cytoplasmic domain (amino acids 403-822) (Homo sapiens (Human), UniProt P21802); assay: FGFR2 enzyme activity assay (LanthaScreen TR-FRET); assay type: biochemical; conditions: 15 μM ATP, 20 min incubation at 22° C., average of multiple determinations if made, read-out: FGFR2 Enz FRET IC50
Procedure, shortened: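 His-tagged FGFR2 cytoplasmic domain ([…]) with 100 nM Alexa Fluor 647-poly-GT peptide and 15 μM ATP in HEPES/MgCl2/Triton buffer, pH 7.5, 2% DMSO, 20 min at 22 °C. EDTA-quenched, Eu-PY20 antibody added, TR-FRET read after 60 min.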

Chain of recombinant human FGFR3 (amino acids R397-T806) (P22607 397-806): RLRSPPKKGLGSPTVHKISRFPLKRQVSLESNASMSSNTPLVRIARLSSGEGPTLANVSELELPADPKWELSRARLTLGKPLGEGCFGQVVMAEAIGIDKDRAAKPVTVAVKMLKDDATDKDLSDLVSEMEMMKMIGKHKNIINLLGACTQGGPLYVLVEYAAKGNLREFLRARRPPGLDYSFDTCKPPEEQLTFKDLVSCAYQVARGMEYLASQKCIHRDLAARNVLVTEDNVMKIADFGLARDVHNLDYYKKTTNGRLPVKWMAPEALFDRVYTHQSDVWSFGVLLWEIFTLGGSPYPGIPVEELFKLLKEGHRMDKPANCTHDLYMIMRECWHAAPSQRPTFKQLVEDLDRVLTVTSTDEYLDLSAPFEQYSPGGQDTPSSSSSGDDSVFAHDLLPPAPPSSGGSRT
Chain of recombinant human FGFR2 cytoplasmic domain (amino acids 403-822) (P21802 402-821): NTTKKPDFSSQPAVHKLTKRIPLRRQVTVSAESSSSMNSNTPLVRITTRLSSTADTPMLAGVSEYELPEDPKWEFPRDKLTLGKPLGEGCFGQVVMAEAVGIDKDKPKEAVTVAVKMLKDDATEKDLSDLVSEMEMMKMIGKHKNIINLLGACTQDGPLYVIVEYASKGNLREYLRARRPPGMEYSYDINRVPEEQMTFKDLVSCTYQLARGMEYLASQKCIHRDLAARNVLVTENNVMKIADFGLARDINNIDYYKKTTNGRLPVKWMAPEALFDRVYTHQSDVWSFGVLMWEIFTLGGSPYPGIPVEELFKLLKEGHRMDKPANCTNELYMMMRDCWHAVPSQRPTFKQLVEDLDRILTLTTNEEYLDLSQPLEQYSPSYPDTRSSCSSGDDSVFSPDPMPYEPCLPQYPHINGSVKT
Chain of recombinant human FGFR1 catalytic domain (amino acids 308-731) (P11362 other isoform, or with tags, fused parts or gaps): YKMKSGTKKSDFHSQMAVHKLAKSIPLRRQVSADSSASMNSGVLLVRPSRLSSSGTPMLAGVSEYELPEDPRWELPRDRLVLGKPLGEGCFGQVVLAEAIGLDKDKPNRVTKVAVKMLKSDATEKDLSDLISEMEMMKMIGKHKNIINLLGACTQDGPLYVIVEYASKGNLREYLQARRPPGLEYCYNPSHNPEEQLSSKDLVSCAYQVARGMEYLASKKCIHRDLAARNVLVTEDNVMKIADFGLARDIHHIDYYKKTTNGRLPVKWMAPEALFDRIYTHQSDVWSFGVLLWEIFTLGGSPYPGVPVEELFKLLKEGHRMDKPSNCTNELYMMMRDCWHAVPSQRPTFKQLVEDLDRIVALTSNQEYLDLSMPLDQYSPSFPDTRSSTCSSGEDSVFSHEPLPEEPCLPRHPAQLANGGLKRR
Chain of FGFR3 (SEQ ID NO: 5, amino acids 449-759) (P22607 449-759): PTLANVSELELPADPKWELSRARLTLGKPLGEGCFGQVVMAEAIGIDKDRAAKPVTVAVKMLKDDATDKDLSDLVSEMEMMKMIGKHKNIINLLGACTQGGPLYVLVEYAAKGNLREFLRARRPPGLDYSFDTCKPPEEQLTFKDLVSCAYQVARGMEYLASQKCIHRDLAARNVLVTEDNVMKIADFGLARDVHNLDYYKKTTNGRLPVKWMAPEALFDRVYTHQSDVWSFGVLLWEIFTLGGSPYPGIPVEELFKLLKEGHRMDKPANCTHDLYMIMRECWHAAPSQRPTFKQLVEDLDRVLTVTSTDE
Chain of phosphorylated FGFR3 (SEQ ID NO: 5, amino acids 449 to 759) (P22607 449-759): as above

IC50 [1] [nM]	IC50 [2] [nM]	FGFR3 Enz kobs [3] [min⁻¹]	IC50 [4] [nM]	IC50 [5] [nM]	Compound
11	3	0.2019	2	5	C=CC(=O)N1CC(C#N)(C(=O)N2CCC(n3cc(-c4cc(OC)c5c(C#N)cnn5c4)cn3)CC2)C1 [Example 39, 6-(1-(1-(1-acryloyl-3-cyanoazetidine-3-carbonyl)piperidin-4-yl)-1H-pyrazol-4-yl)-4-methoxypyrazolo[1,5-a]pyridine-3-carbonitrile]
6	2	0.0041	4	3	C=CC(=O)N1CC(C(=O)N2CCC(n3cc(-c4cc(OC)c5c(C#N)cnn5c4)cn3)CC2)C1(C)C (stereo not shown) [Example 43, 6-(1-(1-(1-acryloyl-2,2-dimethylazetidine-3-carbonyl)piperidin-4-yl)-1H-pyrazol-4-yl)-4-methoxypyrazolo[1,5-a]pyridine-3-carbonitrile]
77	7	0.1061	3	13	C=CC(=O)N1CC(F)(C(=O)N2CCC(n3ncc(-c4cc(OC)c5c(C#N)cnn5c4)c3C)CC2)C1 [Example 85, 6-(1-(1-(1-acryloyl-3-fluoroazetidine-3-carbonyl)piperidin-4-yl)-5-methyl-1H-pyrazol-4-yl)-4-methoxypyrazolo[1,5-a]pyridine-3-carbonitrile]
31	9	0.00615	60	8	C=CC(=O)N1CC(CN2CC(n3cc(-c4cc(OC)c5c(C#N)cnn5c4)cn3)C2)C1 [Example 81, 6-(1-(1-((1-acryloylazetidin-3-yl)methyl)azetidin-3-yl)-1H-pyrazol-4-yl)-4-methoxypyrazolo[1,5-a]pyridine-3-carbonitrile]

Compound	IC50 [1] [nM]	IC50 [2] [nM]	FGFR3 Enz kobs [3] [min⁻¹]	IC50 [4] [nM]	IC50 [5] [nM]
C=CC(=O)N1C2COCC1CN(C(=O)N1CCC(n3cc(-c4cc(OC)c5c(C#N)cnn5c4)cn3)CC1)C2 [Example 3, 6-(1-(1-(9-acryloyl-3-oxa-7,9-diazabicyclo[3.3.1]nonane-7-carbonyl)piperidin-4-yl)-1H-pyrazol-4-yl)-4-methoxypyrazolo[1,5-a]pyridine-3-carbonitrile]	8	2	0.01875	3	5
